The source of these data is US9056804B2, “Urease inhibitor formulations” (Incitec Pivot Limited, priority 2011, dated 2015).

Molecules are shown by their SMILES.

Series [1] has as its system urease. Kind of series: Soil-water suspension incubation, ammonium formed from urea (17 days). Type of series: biochemical. Conditions: 72% inhibition at 50 μg/200 ml versus NBPT at 400 μg/200 ml. The protocol:
The ammonium produced was measured as per Example 9.

In series [2] the test system is fish, algae and invertebrates. Conditions: cited from earlier work.

As for `NP(N)(=O)Nc1ccccc1[N+](=O)[O-]` [Example 2-NPT, 2-nitrophenyl phosphoric triamide], in series [1], the “activity relative to NBPT” value is given as “about eight times more active than NBPT”. As to `O=S1(=O)CCCC1` [tetramethylene sulfone], in series [2], the LC50 result was “greater than 1000 mg/l”.
